Measured values from publication PMC12040169 (PLOS Biology, 2025).

Experiment: in vitro
Conditions: human, hela cells
[1] = % viability, bulk resorufin, single well

Structure (SMILES)	viability at 28.5 h, 10 µM (% viability) [%]	also measured
CCCN1C(=S)N(CCO)C(=O)/C1=C/C=C1/Oc2ccccc2N1CCC(=O)O [CBK261400]	88.6	–
CNC(=O)Nc1ccccc1NC(=O)NC [CBK261401]	93	–
O=C(O)c1ccc(N2C(=O)CC(N3CCN(Cc4ccccc4)CC3)C2=O)cc1 (stereo not shown) [CBK261403]	94.7	–
COc1ccc(CCCNC(=N)N)cc1Cl [CBK261404G]	93.4	–
CC(C)NCC(O)COCc1ccc(Cl)cc1 (stereo not shown) [CBK261406C]	108	–
Cc1ccc(C(=O)N/C(=C\c2cccc([N+](=O)[O-])c2)C(=O)NC2CCCCC2)cc1 [CBK261407]	89.2	–
N=C1NC(=O)/C(=C\c2ccc(-c3ccc(Br)cc3)o2)S1 [CBK261409]	69.9	–
O=C(O)c1ccc(S(=O)(=O)c2ccc(O)cc2)cc1 [CBK261411]	95.2	–
Oc1ccc(/C=N/N(Cc2ccccc2)Cc2ccccc2)cc1 [CBK261414]	98.2	–
OC(Cn1nc(-c2ccccc2)cc1-c1ccccc1)Cn1c2ccc(Cl)cc2c2cc(Cl)ccc21 (stereo not shown) [CBK261418]	84.7	–
Cc1cccc(NCC(O)Cn2c3ccc(Br)cc3c3cc(Br)ccc32)c1 (stereo not shown) [CBK261419]	94.5	–
OC(CNc1cccc2ccccc12)Cn1c2ccc(Br)cc2c2cc(Br)ccc21 (stereo not shown) [CBK261420]	99.8	–
Cc1nc([N+](=O)[O-])c(NCCO)n1Cc1ccccc1 [CBK261422]	88.5	–
Cn1c(-c2ccc(-c3nc4cnccc4n3C)cc2)nc2cnccc21 [CBK261423]	106	–
CC(NC(=O)COc1ccc(Cl)cc1Cl)C(=O)O (stereo not shown) [CBK261425]	91.2	–
O=C(O)c1ccc(CN2CCOCC2)o1 [CBK261426C]	90.7	–
O=C(/C=C(O)/C(O)=C/C(=O)c1ccc(Cl)cc1)c1ccc(Cl)cc1 [CBK261428]	102	–
CN(C(=O)CCC(=O)O)c1ccccc1C(=O)O [CBK261429]	104	–
O=C(N/N=C/C=N/NC(=O)c1ccccc1O)c1ccccc1O [CBK261430]	98.2	–
Cc1cccnc1NC(=O)c1c(O)c2ccccc2n(C)c1=O [CBK261431]	96	–
CCn1c(=O)c(C(=O)NCCN2CCCCC2)c(O)c2ccccc21 [CBK261432C]	97.7	–
O=[N+]([O-])c1cccc(-c2nc(-c3ccccc3)c(-c3ccc4oc5ccc(-c6[nH]c(-c7cccc([N+](=O)[O-])c7)nc6-c6ccccc6)cc5c4c3)[nH]2)c1 [CBK261433]	87.5	–

Structure (SMILES)	viability at 28.5 h, 10 µM (% viability) [%]	also measured
COc1ccc(N2C(=O)NC(=O)/C(=C\c3ccc(O)c(O)c3)C2=O)cc1 [CBK261436]	–	viability at 28.5 h, 10 µM [1]: 92%
N=c1n(-c2ccccc2)c(O)c(C(c2ccncc2)c2c(O)n(-c3ccccc3)c(=N)n(-c3ccccc3)c2=O)c(=O)n1-c1ccccc1 (stereo not shown) [CBK261438]	82	–
C=CCN1C(=O)/C(=N\Nc2ccc(S(=O)(=O)O)cc2)C(=O)NC1=S [CBK261440]	–	viability at 28.5 h, 10 µM [1]: 92%
CC(=O)NS(=O)(=O)c1ccc(Nc2ccc([N+](=O)[O-])c3nonc23)cc1 [CBK261443]	89.7	–
Cc1cc(C)nc(NS(=O)(=O)c2ccc(Nc3ccc4nonc4c3[N+](=O)[O-])cc2)n1 [CBK261444]	103	–
CCc1nnc(NS(=O)(=O)c2ccc(Nc3ccc4nonc4c3[N+](=O)[O-])cc2)s1 [CBK261445]	98	–
CC12CN3CC(C)(CN(C1)C3c1ccc(Br)cc1)C2=O (stereo not shown) [CBK261452]	92.1	–
COc1cc(C2N3CC4(C)CN2CC(C)(C3)C4=O)ccc1O (stereo not shown) [CBK261453]	99.6	–
CC1CCN(CCOCC(O)CNS(=O)(=O)O)CC1 (stereo not shown) [CBK261454N]	124	–
NC(=O)C1CCN(S(=O)(=O)c2ccc([N+](=O)[O-])cc2)CC1 [CBK261455]	87	–
CN(CCO)S(=O)(=O)c1ccccc1[N+](=O)[O-] [CBK261457]	102	–
CN(Cc1ccccc1)S(=O)(=O)c1ccccc1[N+](=O)[O-] [CBK261458]	92.3	–
Cc1ncc(COP(=O)(O)O)c(/C=N/c2ccc3ccccc3c2)c1O [CBK261460]	106	–
O=C(O)/C=C/C(=O)Nc1ccccc1C(=O)O [CBK261461]	101	–
CN(C)CCCO/N=C(\c1ccccc1)c1ccncc1 [CBK261464G]	95.3	–
CN1C2CCC1CC(OC(=O)CCN1CCOCC1)C2 (stereo not shown) [CBK261465]	97.4	–
CN(C)CCCNc1c(N)c(=O)oc2ccccc12 [CBK261468]	94.3	–
O=c1oc2ccccc2c(NCCCN2CCOCC2)c1[N+](=O)[O-] [CBK261471]	120	–
O=C(Nc1cccc2cccnc12)c1cccc2ccccc12 [CBK261473]	72.7	–
O=C(/C=C/c1ccco1)Nc1cc2ccccc2cc1NC(=O)/C=C/c1ccco1 [CBK261474]	99.5	–
CC(=O)C12CCCCC1CC1C3CC(C)C4(O)CC(O)CCC4(C)C3CCC12C (stereo not shown) [CBK261479]	91.8	–
COc1cc(/C=N/NC(=O)C2COc3ccccc3O2)cc([N+](=O)[O-])c1O (stereo not shown) [CBK261480]	89.1	–

Structure (SMILES)	viability at 28.5 h, 10 µM (% viability) [%]	also measured
CC(C)Cc1ccc(C(C)c2nc3ccccc3[nH]2)cc1 (stereo not shown) [CBK261484]	89.7	–
Nc1ccc(Oc2ccc(-n3c(=O)c4cc5c(=O)n(-c6ccc(Oc7ccc(N)cc7)cc6)c(=O)c5cc4c3=O)cc2)cc1 [CBK261489]	104	–
CC(=O)N/C(=C\c1ccccc1)C(=O)NC(C)C(=O)O (stereo not shown) [CBK261491]	99.1	–
Nc1ccc(S(=O)(=O)O)c2cccc(S(=O)(=O)O)c12 [CBK261492N]	99.6	–
Nc1nc(N)nc(-c2ccc(-c3nc(N)nc(N)n3)cc2)n1 [CBK261494]	90.4	–
O=C(O)c1cccc(N2C(=O)C3C4C=CC(C3C2=O)C2C(=O)N(c3cccc(C(=O)O)c3)C(=O)C42)c1 (stereo not shown) [CBK261495]	110	–
CN1CCN(CCC(=O)N/N=C/c2ccc3c(c2)OCO3)CC1 [CBK261498]	91.5	–
COc1cccc(/C=N/NC(=O)CCN2CCN(C)CC2)c1O [CBK261499]	91.3	–
CN1CCN(CCC(=O)N/N=C/c2ccccn2)CC1 [CBK261501]	114	–
CN1CCN(CCC(=O)N/N=C/c2c[nH]c3ccccc23)CC1 [CBK261502]	94.7	–
CN1CCN(CCC(=O)N/N=C/c2ccsc2)CC1 [CBK261505]	94.8	–
COc1c2c(nc3ccccc13)OC(C(C)(O)CO)C2 (stereo not shown) [CBK261506]	87.6	–
Cc1ccc2nc(-c3ccc(N)cc3)sc2c1S(=O)(=O)O [CBK261510]	96.3	–
[O-][N+]1=C2CCc3c(no[n+]3[O-])C2(O)CC1N1CCOCC1 (stereo not shown) [CBK261515]	112	–
CN1CCN(Cc2ccccc2[N+](=O)[O-])CC1 [CBK261524]	85.5	–
O=C(O)CN(CC(=O)O)S(=O)(=O)c1ccc(Cl)cc1 [CBK261526]	92.2	–
CCN(CC)Cc1c(O)ccc2c(C#N)c(C)n(-c3ccccc3)c12 [CBK261527C]	94.9	–
Oc1ccc(CN2CCN(c3cccc(Cl)c3)CC2)cc1 [CBK261528]	–	viability at 28.5 h, 10 µM [1]: 109%
O=C(O)CCCC(=O)Nc1cccc([N+](=O)[O-])c1 [CBK261530]	101	–
COc1cccc(CN(C)C2CCN(C)CC2)c1OC [CBK261532]	97.7	–
NS(=O)(=O)c1ccc(/N=C/c2cccc(O)c2O)cc1 [CBK261533]	87.8	–
COc1cc2c(cc1OC)CN(Cc1ccccc1[N+](=O)[O-])CC2 [CBK261535]	89.8	–

Structure (SMILES)	viability at 28.5 h, 10 µM (% viability) [%]	also measured
NS(=O)(=O)c1ccc(NC(=O)CCCOc2ccc(Cl)cc2Cl)cc1 [CBK261536]	104	–
CCOC(=O)C1CCCCN1Cc1ccc(O)c(OC)c1 (stereo not shown) [CBK261541]	96.9	–
Oc1cccc(CN2CCN(c3cccc(Cl)c3)CC2)c1 [CBK261543]	–	viability at 28.5 h, 10 µM [1]: 90.1%
CCOc1ccc(NC(=O)C2C3c4ccccc4C(c4ccccc43)C2C(=O)O)cc1 (stereo not shown) [CBK261544]	102	–
O=C(Nc1ccc(-c2nc(-c3ccccc3)c3cc(NC(=O)c4cccs4)ccc3n2)cc1)c1cccs1 [CBK261547]	86	–
COc1ccc(CN2CCN(Cc3ccccc3)CC2)c(OC)c1 [CBK261553]	–	viability at 28.5 h, 10 µM [1]: 115%
O=C(O)c1cccc(NC(=O)c2cc([N+](=O)[O-])cc([N+](=O)[O-])c2)c1 [CBK261555]	–	viability at 28.5 h, 10 µM [1]: 92.8%
O=[N+]([O-])c1ccc(O)c(/C=N/c2ccc3cc4ccc(/N=C/c5cc([N+](=O)[O-])ccc5O)cc4nc3c2)c1 [CBK261557]	57.4	–
CCN1CCN(Cc2cc(Br)c(OC)cc2OC)CC1 [CBK261566]	–	viability at 28.5 h, 10 µM [1]: 103%
Oc1ccc(CN2CCN(c3ncccn3)CC2)cc1 [CBK261567]	105	–
O=[N+]([O-])c1ccc(Cl)cc1CN1CCN(C/C=C/c2ccccc2)CC1 [CBK261568]	106	–
COc1ccc(CN2CCN(c3ccccn3)CC2)cc1O [CBK261570]	90.5	–
O=[N+]([O-])c1ccccc1CN1CCN(c2ccccc2Cl)CC1 [CBK261572]	–	viability at 28.5 h, 10 µM [1]: 92%
CN1CCC(N(C)Cc2cc(Cl)ccc2[N+](=O)[O-])CC1 [CBK261576]	91.1	–
CCOc1ccccc1CN1CCN(C)CC1 [CBK261577]	–	viability at 28.5 h, 10 µM [1]: 91%
CCn1c2ccccc2c2cc(CN3CCN(c4ccccc4OC)CC3)ccc21 [CBK261579]	85.4	–
CCc1nc2ccccc2c(NC(=O)CN2CCCCCC2)c1C [CBK261580G]	90.3	–
COc1cc(CN2CCN(C/C=C/c3ccccc3)CC2)cc(Br)c1O [CBK261582]	101	–
Cc1ccc2nc(-c3ccc(/N=C/c4cccc(O)c4O)cc3)sc2c1 [CBK261583]	96	–
O=C(O)c1n[s+][n-]c1-c1cc([N+](=O)[O-])cc([N+](=O)[O-])c1O [CBK261584]	–	viability at 28.5 h, 10 µM: 97.2%
NS(=O)(=O)c1ccc(/N=C/c2ccc(OCc3ccccc3)cc2)cc1 [CBK261585]	98.3	–
O=C(COc1ccc2ccccc2c1)OCC(=O)c1ccc([N+](=O)[O-])cc1 [CBK261586]	88.2	–
